# Laboratory results published in ChEMBL document CHEMBL4325929, “Discovery of Tetrahydropyridopyrimidines as Irreversible Covalent Inhibitors of KRAS-G12C with In Vivo Activity” (ACS Med Chem Lett, 2018).
# pIC50: −log10 of the molar value. Calls of active or inactive are those of the source. The rule behind the calls is not given here.
# Legend:
# [1] = tested on: GTPase KRas (Homo sapiens), P01116 [G12C]; assay: Binding affinity to KRAS G12C mutant (unknown origin) assessed as covalent modification at 3 uM after 15 mins by LC-MS analysis relative to control
# [2] = target: GTPase KRas (Homo sapiens, UniProt P01116, G12C); assay: Inhibition of KRAS G12C mutant in human NCI-H358 cells assessed as reduction in ERK phosphorylation measured after 3 hrs by Western blot analysis; type: cell-based
# [3] = tested on: GTPase KRas (Homo sapiens), P01116 [G12C]; assay: Binding affinity to KRAS G12C mutant (unknown origin) assessed as covalent modification at 5 uM after 3 hrs by LC-MS analysis relative to control
# [4] = Protein binding in CD-1 mouse plasma at 1 uM by equilibrium dialysis method; type: ADME, cell-free; conditions: read-out: PPB (converted)
# [5] = Plasma concentration in CD-1 mouse at 100 mg/kg, ip measured after 6 hrs; type: ADME, organism-based
# [6] = Toxicity in nude-Fox1nu mouse xenografted with human MIAPaCa2 cells assessed as body weight loss at 30 to 100 mg/kg, ip administered once daily for 17 days measured 2 times a week during compound dosing; type: organism-based; conditions: in vivo, 408 h
# [7] = Plasma concentration in CD-1 mouse at 50 mg/kg, ip measured after 1 hr; type: ADME, organism-based
# [8] = Plasma concentration in CD-1 mouse at 50 mg/kg, ip measured after 0.5 hrs; type: ADME, organism-based
# [9] = tested on: Mus musculus; assay: Ex vivo inhibition of KRAS G12C mutant in human MIAPaCa2 cells xenografted in nude-Fox1nu mouse assessed as target engagement in tumor at 30 to 100 mg/kg, ip administered once daily for 1 day measured 3 to 24 hrs post dose relative to control; type: functional; parameters: scale not given: the % may be the effect or the level left
# [10] = tested on: MIA PaCa-2; assay: Antitumor activity against human MIAPaCa2 cells xenografted in nude-Fox1nu mouse assessed as reduction in tumor volume at 30 to 100 mg/kg, ip administered once daily for 17 days measured three times a week during compound dosing; type: functional, organism-based
# [11] = Tmax in CD-1 mouse at 100 mg/kg, po; type: ADME, organism-based; conditions: in vivo
# [12] = tested on: MDR1; assay: Apparent permeability across apical to basolateral side in pig LLC-PK1 cells expressing MDR1 at 1 uM; type: ADME, cell-based, Sus scrofa
# [13] = tested on: MIA PaCa-2; assay: Antitumor activity against human MIAPaCa2 cells xenografted in nude-Fox1nu mouse assessed as tumor regression at 30 to 100 mg/kg, ip administered once daily for 5 days; type: functional, organism-based
# [14] = Plasma concentration in CD-1 mouse at 50 mg/kg, ip measured after 3 hrs; type: ADME, organism-based
# [15] = Plasma concentration in CD-1 mouse at 100 mg/kg, ip measured after 3 hrs; type: ADME, organism-based
# [16] = Plasma concentration in CD-1 mouse at 100 mg/kg, ip measured after 0.5 hrs; type: ADME, organism-based
# [17] = Oral bioavailability in CD-1 mouse at 100 mg/kg; type: ADME, organism-based; conditions: in vivo
# [18] = Half life in CD-1 mouse at 3 mg/kg, iv; type: ADME, organism-based; conditions: in vivo
# [19] = Volume of distribution at steady state in CD-1 mouse at 3 mg/kg, iv; type: ADME, organism-based; conditions: in vivo, read-out: Vdss
# [20] = tested on: Mus musculus; assay: Ex vivo inhibition of KRAS G12C mutant in human MIAPaCa2 cells xenografted in nude-Fox1nu mouse assessed as target engagement in tumor at 30 to 100 mg/kg, ip administered once daily for 5 days measured 3 to 24 hrs post dose relative to control; type: functional; parameters: scale not given: the % may be the effect or the level left
# [21] = Plasma concentration in CD-1 mouse at 15 mg/kg, ip measured after 0.5 hrs; type: ADME, organism-based
# [22] = Plasma concentration in CD-1 mouse at 15 mg/kg, ip measured after 3 hrs; type: ADME, organism-based; conditions: in vivo, BLD = below limit of detection
# [23] = Cmax in CD-1 mouse at 100 mg/kg, po; type: ADME, organism-based; parameters: dose 100 mg/kg, route oral; conditions: in vivo
# [24] = Plasma concentration in CD-1 mouse at 100 mg/kg, ip measured after 1 hr; type: ADME, organism-based
# [25] = Plasma concentration in CD-1 mouse at 15 mg/kg, ip measured after 1 hr; type: ADME, organism-based
# [26] = Toxicity in nude-Fox1nu mouse xenografted with human MIAPaCa2 cells assessed as adverse effect at 30 to 100 mg/kg, ip administered once daily for 17 days measured during compound dosing; type: organism-based; conditions: in vivo, 408 h
# [27] = tested on: MDR1; assay: Apparent permeability across basolateral to apical side in pig LLC-PK1 cells expressing MDR1 at 1 uM; type: ADME, cell-based, Sus scrofa
# [28] = Clearance in CD-1 mouse at 3 mg/kg, iv; type: ADME, organism-based; conditions: in vivo
# [29] = AUC (infinity) in CD-1 mouse at 100 mg/kg, po; type: ADME, organism-based; parameters: dose 100 mg/kg, time infinity, route oral; conditions: in vivo
# GTPase KRas (Homo sapiens), P01116 [G12C], sequence (P01116 whole entry G12C): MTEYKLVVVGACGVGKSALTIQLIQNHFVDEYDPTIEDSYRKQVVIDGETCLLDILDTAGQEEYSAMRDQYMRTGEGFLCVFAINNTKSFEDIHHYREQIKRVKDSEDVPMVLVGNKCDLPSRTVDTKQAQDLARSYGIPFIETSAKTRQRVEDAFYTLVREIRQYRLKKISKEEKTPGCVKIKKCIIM
# GTPase KRas, sequence (P01116 whole entry G12C): as above
smiles,measurement,setting,value
C=CC(=O)N1CCN(c2nc(O[C@@H](C)CN(C)C)nc3c2CCN(c2cc(O)cc4ccccc24)C3)CC1,Activity,[1],21%
same,pIC50,[2],6.27
C=CC(=O)N1CCN(c2ncnc3c2CCN(c2c(C)ccc4[nH]ncc24)C3)CC1,Activity,[3],22%
same,pIC50,[2],< 4.80
C=CC(=O)N1CCN(c2ncnc3c2CCN(c2cccc4ccccc24)C3)CC1,Activity,[3],13%
same,pIC50,[2],< 4.80
C=CC(=O)N1CCN(c2nc(OCCN(C)C)nc3c2CCN(c2cc(O)cc4ccccc24)C3)CC1,Activity,[1],52%
same,pIC50,[2],5.72
C=CC(=O)N1CCN(c2nc(OCCCN(C)C)nc3c2CCN(c2cc(O)cc4ccccc24)C3)CC1,Activity,[1],22%
same,pIC50,[2],5.82
C=CC(=O)N1CCN(c2ncnc3c2CCN(c2cc(O)cc4ccccc24)C3)CC1,Activity,[3],99%
same,Activity,[1],8%
same,pIC50,[2],5.12
C=CC(=O)N1CCN(c2nc(OC[C@@H]3CCCN3C)nc3c2CCN(c2cc(O)cc4ccccc24)C3)CC1,fraction unbound at 1 µM,[4],0.05
same,concentration at 6 h,[5],1300 ng/mL
same,Activity,[6],Non-Toxic
same,concentration at 1 h,[7],2600 ng/mL
same,concentration at 0.5 h,[8],8300 ng/mL
same,Activity,[9],>65%
same,Activity,[10],Active
same,Tmax,[11],60 min
same,Papp A→B at 1 µM,[12],1.4 ×10⁻⁶ cm/s
same,Activity,[13],Active
same,concentration at 3 h,[14],250 ng/mL
same,concentration at 3 h,[15],1400 ng/mL
same,concentration at 0.5 h,[16],26000 ng/mL
same,bioavailability,[17],2.4%
same,half-life,[18],57.6 min
same,Vd,[19],0.53 L/kg
same,Activity,[20],>65%
same,concentration at 0.5 h,[21],1500 ng/mL
same,Cp,[22],Bld
same,Cmax,[23],590 ng/mL
same,Activity,[1],84%
same,concentration at 1 h,[24],17000 ng/mL
same,concentration at 1 h,[25],970 ng/mL
same,Activity,[26],Non-Toxic
same,Papp B→A at 1 µM,[27],37 ×10⁻⁶ cm/s
same,clearance,[28],46 mL/min/kg
same,AUC(0-inf),[29],880 ng·h/mL
C=CC(=O)N1CCN(c2ncnc3c2CCN(c2cccc4ccc(O)cc24)C3)CC1,Activity,[3],0%
same,pIC50,[2],< 4.80
C=CC(=O)N1CCN(c2ncnc3c2CCN(c2c(O)cccc2F)C3)CC1,Activity,[3],2%
same,pIC50,[2],< 4.80
C=CC(=O)N1CCN(c2ncnc3c2CCN(c2cc(O)ccc2F)C3)CC1,Activity,[3],2%
same,pIC50,[2],< 4.80
